Key:
[1] = rat, in vivo; cited from earlier work
[2] = Magnetic resonance relaxivity (R1, R2) of paramagnetic polymerized liposomes; format: physicochemical
Source text: We have constructed paramagnetic polymerized liposomes using the above techniques with 2.5 to 100 mol % of the gadolinium chelated diamide shown in FIG. 4, with the polyethylene glycol linker m=1 and m=2, and sizes ranging from 30 nm to 200 nm in diameter. We have determined the maximum T1 relaxivity, showing the best contrast, is obtained with 15% gadolinium chelated diamide and 85% DAPC with m=2 and having 200 nm particle size. High relaxivity is also observed with 30% gadolinium chelated diamide and 70% PDA with m=1 and having a variable particle size of about 10 to about 200 nm.
Similar measurements were made using PDA liposomes as the matrix lipid and the gadolinium chelated diamide (m=1).

## O=C([O-])CN(CCN(CC(=O)[O-])CC(=O)O)CCN(CC(=O)[O-])CC(=O)O.[Gd+3] [Gd (DTPA), gadolinium diethylenetriaminepentaacetic acid]
[1]
  elimination from the blood pool: within a few minutes
[2]
  molar relaxivity per Gd^+3 ion: 4.2 mM⁻¹ s⁻¹
[2]; DAPC matrix lipid, gadolinium-diamide %, linker m and size as in label
  R1: 4.4 s⁻¹ mM⁻¹

Source: US6569451B1, “Targeted polymerized liposome diagnostic and treatment agents” (Targesome, Inc., priority 1994, dated 2003)
